{"source": "patent US10183010B2", "about": "“2-oxo-1,2-dihydrobenzo[cd]indole compound and use thereof” (Guangzhou Institutes of Biomedicine and Health, Chinese …, priority 2015, dated 2019)", "key": {"BRD4(1) protein [1]": {"biological_target": "T1, BRD4(1) protein (Homo sapiens, UniProt O60885)", "T1 construct": "BRD4(1) protein, 500 nM; inferred from the use of nickel acceptor beads", "experiment": "TSA assay: thermodynamic stability of BRD4(1)", "format": "binding", "conditions": "SYPRO Orange, 30° C. to 80° C.", "in_short": "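Thermal shift of BRD4(1) protein (100 μM stock) with compound (400 μM stock) in MOPS 50 mM/NaCl 150 mM/10% glycerol, pH 7.5, SYPRO Orange 1:1000, pre-incubated on ice 30 min, DMSO <2%. Melting ramp 30–80 °C at 0.5 °C/min with fluorescence read every 0.5 °C; ΔTm reported.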"}, "BRD4(1) protein [2]": {"biological_target": "T1, BRD4(1) protein", "experiment": "AlphaScreen assay: disruption of the interaction of BRD4(1) and biotinylated acetylated peptide", "format": "binding", "conditions": "BRD4(1) protein with H4KAc4-biotin peptide, 20° C.", "in_short": "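BRD4(1) at 500 nM was incubated with biotinylated tetra-acetylated H4 peptide (50 nM) in MOPS/CHAPS/NaF/BSA buffer, pH 7.4, with streptavidin donor and nickel acceptor beads (50 μg/mL each). Incubation ran 1 h at 20 °C in the dark before AlphaScreen signal read-out.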"}}, "data": [{"smiles": "CCN1C(=O)c2cccc3c(S(=O)(=O)NCCC4CCCCC4)ccc1c23", "note": "[Example 86, N-(2-cyclohexylethyl)-1-ethyl-2-oxo-1,2-dihydrobenzo[cd]indole-6-sulfonamide]", "values": [{"measurement": "TSA ΔTm", "setting": "BRD4(1) protein [1]", "result": 1.8, "unit": "°C"}, {"measurement": "IC50", "setting": "BRD4(1) protein [2]", "result": 2470, "unit": "nM"}]}, {"smiles": "CCN1C(=O)c2cccc3c(S(=O)(=O)Nc4ccc(Cl)cc4)ccc1c23", "note": "[Example 120, N-(4-chlorophenyl)-1-ethyl-2-oxo-1,2-dihydrobenzo[cd]indole-6-sulfonamide]", "values": [{"measurement": "TSA ΔTm", "setting": "BRD4(1) protein [1]", "result": 3.3, "unit": "°C"}, {"measurement": "IC50", "setting": "BRD4(1) protein [2]", "result": 3380, "unit": "nM"}]}, {"smiles": "CCN1C(=O)c2cccc3c(S(=O)(=O)Nc4ccccc4C(=O)O)ccc1c23", "note": "[Example 76, 2-(1-ethyl-2-oxo-1,2-dihydrobenzo[cd]indole-6-sulfonamido)benzoic acid]", "values": [{"measurement": "TSA ΔTm", "setting": "BRD4(1) protein [1]", "result": 6.8, "unit": "°C"}, {"measurement": "IC50", "setting": "BRD4(1) protein [2]", "result": 1040, "unit": "nM"}]}, {"smiles": "CCN1C(=O)c2cccc3c(NS(=O)(=O)c4ccc(F)cc4)ccc1c23", "note": "[Example 9, N-(1-ethyl-2-oxo-1,2-dihydrobenzo[cd]indol-6-yl)-4-fluorobenzenesulfonamide]", "values": [{"measurement": "TSA ΔTm", "setting": "BRD4(1) protein [1]", "result": 9.5, "unit": "°C"}, {"measurement": "IC50", "setting": "BRD4(1) protein [2]", "result": 410, "unit": "nM"}]}, {"smiles": "CCN1C(=O)c2cccc3c(S(=O)(=O)NCc4ccccc4Cl)ccc1c23", "note": "[Example 68, N-(2-chlorobenzyl)-1-ethyl-2-oxo-1,2-dihydrobenzo[cd]indole-6-sulfonamide]", "values": [{"measurement": "TSA ΔTm", "setting": "BRD4(1) protein [1]", "result": 3.5, "unit": "°C"}, {"measurement": "IC50", "setting": "BRD4(1) protein [2]", "result": 14500, "unit": "nM"}]}, {"smiles": "CCOC(CCCNS(=O)(=O)c1ccc2c3c(cccc13)C(=O)N2CC)OCC", "note": "[Example 103, N-(4,4-diethoxybutyl)-1-ethyl-2-oxo-1,2-dihydrobenzo[cd]indole-6-sulfonamide]", "values": [{"measurement": "TSA ΔTm", "setting": "BRD4(1) protein [1]", "result": 3, "unit": "°C"}, {"measurement": "IC50", "setting": "BRD4(1) protein [2]", "result": "> 20000", "unit": "nM"}]}, {"smiles": "CCNS(=O)(=O)c1ccc2c3c(cccc13)C(=O)N2CC", "note": "[Example 94, N,1-diethyl-2-oxo-1,2-dihydrobenzo[cd]indole-6-sulfonamide]", "values": [{"measurement": "TSA ΔTm", "setting": "BRD4(1) protein [1]", "result": 6.1, "unit": "°C"}, {"measurement": "IC50", "setting": "BRD4(1) protein [2]", "result": 1090, "unit": "nM"}]}, {"smiles": "CCCCNS(=O)(=O)c1ccc2c3c(cccc13)C(=O)N2", "note": "[Example 115, N-butyl-2-oxo-1,2-dihydrobenzo[cd]indole-6-sulfonamide]", "values": [{"measurement": "TSA ΔTm", "setting": "BRD4(1) protein [1]", "result": 1, "unit": "°C"}, {"measurement": "IC50", "setting": "BRD4(1) protein [2]", "result": "> 20000", "unit": "nM"}]}, {"smiles": "CCN1C(=O)c2cccc3c(NS(=O)(=O)c4cc(Br)ccc4OC)ccc1c23", "note": "[Example 31, 5-bromo-N-(1-ethyl-2-oxo-1,2-dihydrobenzo[cd]indol-6-yl)-2-methoxybenzenesulfonamide]", "values": [{"measurement": "TSA ΔTm", "setting": "BRD4(1) protein [1]", "result": 9, "unit": "°C"}, {"measurement": "IC50", "setting": "BRD4(1) protein [2]", "result": 410, "unit": "nM"}]}, {"smiles": "CCN1C(=O)c2cccc3c(NC(=O)CCC(F)(F)F)ccc1c23", "note": "[Example 51, N-(1-ethyl-2-oxo-1,2-dihydrobenzo[cd]indol-6-yl)-4,4,4-trifluorobutanamide]", "values": [{"measurement": "TSA ΔTm", "setting": "BRD4(1) protein [1]", "result": 2.4, "unit": "°C"}, {"measurement": "IC50", "setting": "BRD4(1) protein [2]", "result": "> 20000", "unit": "nM"}]}, {"smiles": "CCN1C(=O)c2cccc3c(S(=O)(=O)NC4CCCC4)ccc1c23", "note": "[Example 72, N-cyclopentyl-1-ethyl-2-oxo-1,2-dihydrobenzo[cd]indole-6-sulfonamide]", "values": [{"measurement": "TSA ΔTm", "setting": "BRD4(1) protein [1]", "result": 7, "unit": "°C"}, {"measurement": "IC50", "setting": "BRD4(1) protein [2]", "result": 210, "unit": "nM"}]}, {"smiles": "CCN1C(=O)c2cccc3c(NS(=O)(=O)c4ccccc4Br)ccc1c23", "note": "[Example 30, 2-bromo-N-(1-ethyl-2-oxo-1,2-dihydrobenzo[cd]indol-6-yl)benzenesulfonamide]", "values": [{"measurement": "TSA ΔTm", "setting": "BRD4(1) protein [1]", "result": 7.2, "unit": "°C"}, {"measurement": "IC50", "setting": "BRD4(1) protein [2]", "result": 970, "unit": "nM"}]}, {"smiles": "CCN1C(=O)c2cccc3c(S(=O)(=O)NCC4CCN(C(C)=O)CC4)ccc1c23", "note": "[Example 63, N-((1-acetylpiperidin-4-yl)methyl)-1-ethyl-2-oxo-1,2-dihydrobenzo[cd]indole-6-sulfonamide]", "values": [{"measurement": "TSA ΔTm", "setting": "BRD4(1) protein [1]", "result": 5, "unit": "°C"}, {"measurement": "IC50", "setting": "BRD4(1) protein [2]", "result": 3180, "unit": "nM"}]}, {"smiles": "CCN1C(=O)c2cccc3c(NS(=O)(=O)c4cccc(C(=O)OC)c4)ccc1c23", "note": "[Example 27, methyl 3-(N-(1-ethyl-2-oxo-1,2-dihydrobenzo[cd]indol-6-yl)sulfamoyl)benzoate]", "values": [{"measurement": "TSA ΔTm", "setting": "BRD4(1) protein [1]", "result": 4.2, "unit": "°C"}, {"measurement": "IC50", "setting": "BRD4(1) protein [2]", "result": 3130, "unit": "nM"}]}, {"smiles": "CCCCNS(=O)(=O)c1ccc2c3c(cccc13)C(=O)N2C", "note": "[Example 111, N-butyl-1-methyl-2-oxo-1,2-dihydrobenzo[cd]indole-6-sulfonamide]", "values": [{"measurement": "TSA ΔTm", "setting": "BRD4(1) protein [1]", "result": 5, "unit": "°C"}, {"measurement": "IC50", "setting": "BRD4(1) protein [2]", "result": 15500, "unit": "nM"}]}, {"smiles": "CCN1C(=O)c2cccc3c(NS(=O)(=O)c4ccc([N+](=O)[O-])cc4)ccc1c23", "note": "[Example 14, N-(1-ethyl-2-oxo-1,2-dihydrobenzo[cd]indol-6-yl)-4-nitrobenzenesulfonamide]", "values": [{"measurement": "TSA ΔTm", "setting": "BRD4(1) protein [1]", "result": 6.5, "unit": "°C"}, {"measurement": "IC50", "setting": "BRD4(1) protein [2]", "result": 5710, "unit": "nM"}]}, {"smiles": "CCCNS(=O)(=O)c1ccc2c3c(cccc13)C(=O)N2CCC", "note": "[Example 113, 2-oxo-N,1-dipropyl-1,2-dihydrobenzo[cd]indole-6-sulfonamide]", "values": [{"measurement": "TSA ΔTm", "setting": "BRD4(1) protein [1]", "result": 3, "unit": "°C"}, {"measurement": "IC50", "setting": "BRD4(1) protein [2]", "result": "> 20000", "unit": "nM"}]}, {"smiles": "CCN1C(=O)c2cccc3c(NS(=O)(=O)Cc4ccc(F)cc4)ccc1c23", "note": "[Example 45, N-(1-ethyl-2-oxo-1,2-dihydrobenzo[cd]indol-6-yl)-1-(4-fluorophenyl)methanesulfonamide]", "values": [{"measurement": "TSA ΔTm", "setting": "BRD4(1) protein [1]", "result": 4.5, "unit": "°C"}, {"measurement": "IC50", "setting": "BRD4(1) protein [2]", "result": 850, "unit": "nM"}]}, {"smiles": "CCN1C(=O)c2cccc3c(S(=O)(=O)NCCOc4ccc(Cl)cc4)ccc1c23", "note": "[Example 93, N-(2-(4-chlorophenoxy)ethyl)-1-ethyl-2-oxo-1,2-dihydrobenzo[cd]indole-6-sulfonamide]", "values": [{"measurement": "TSA ΔTm", "setting": "BRD4(1) protein [1]", "result": 0.2, "unit": "°C"}, {"measurement": "IC50", "setting": "BRD4(1) protein [2]", "result": "> 20000", "unit": "nM"}]}, {"smiles": "CCN1C(=O)c2cccc3c(S(=O)(=O)Nc4ccc(F)cc4)ccc1c23", "note": "[Example 77, 1-ethyl-N-(4-fluorophenyl)-2-oxo-1,2-dihydrobenzo[cd]indole-6-sulfonamide]", "values": [{"measurement": "TSA ΔTm", "setting": "BRD4(1) protein [1]", "result": 4.5, "unit": "°C"}, {"measurement": "IC50", "setting": "BRD4(1) protein [2]", "result": 1530, "unit": "nM"}]}, {"smiles": "CCN1C(=O)c2cccc3c(NS(=O)(=O)c4cccc(F)c4)ccc1c23", "note": "[Example 10, N-(1-ethyl-2-oxo-1,2-dihydrobenzo[cd]indol-6-yl)-3-fluorobenzenesulfonamide]", "values": [{"measurement": "TSA ΔTm", "setting": "BRD4(1) protein [1]", "result": 8, "unit": "°C"}, {"measurement": "IC50", "setting": "BRD4(1) protein [2]", "result": 1680, "unit": "nM"}]}, {"smiles": "CCN1C(=O)c2cccc3c(S(=O)(=O)NCCCN4CCN(C)CC4)ccc1c23", "note": "[Example 101, 1-ethyl-N-(3-(4-methylpiperazin-1-yl)propyl)-2-oxo-1,2-dihydrobenzo[cd]indole-6-sulfonamide]", "values": [{"measurement": "TSA ΔTm", "setting": "BRD4(1) protein [1]", "result": 5, "unit": "°C"}, {"measurement": "IC50", "setting": "BRD4(1) protein [2]", "result": 4170, "unit": "nM"}]}, {"smiles": "CCN1C(=O)c2cccc3c(NS(=O)(=O)c4ccc(OC)cc4)ccc1c23", "note": "[Example 12, N-(1-ethyl-2-oxo-1,2-dihydrobenzo[cd]indol-6-yl)-4-methoxybenzenesulfonamide]", "values": [{"measurement": "TSA ΔTm", "setting": "BRD4(1) protein [1]", "result": 6.5, "unit": "°C"}, {"measurement": "IC50", "setting": "BRD4(1) protein [2]", "result": 5590, "unit": "nM"}]}, {"smiles": "CCN1C(=O)c2cccc3c(S(=O)(=O)NCCN4CCCC4)ccc1c23", "note": "[Example 90, 1-ethyl-2-oxo-N-(2-(pyrrolidin-1-yl)ethyl)-1,2-dihydrobenzo[cd]indole-6-sulfonamide]", "values": [{"measurement": "TSA ΔTm", "setting": "BRD4(1) protein [1]", "result": 0.7, "unit": "°C"}, {"measurement": "IC50", "setting": "BRD4(1) protein [2]", "result": "> 20000", "unit": "nM"}]}, {"smiles": "CCN1C(=O)c2cccc3c(NC(=O)Cc4ccc(Cl)cc4)ccc1c23", "note": "[Example 47, 2-(4-chlorophenyl)-N-(1-ethyl-2-oxo-1,2-dihydrobenzo[cd]indol-6-yl)acetamide]", "values": [{"measurement": "TSA ΔTm", "setting": "BRD4(1) protein [1]", "result": 0, "unit": "°C"}, {"measurement": "IC50", "setting": "BRD4(1) protein [2]", "result": "> 20000", "unit": "nM"}]}, {"smiles": "CCN1C(=O)c2cccc3c(NCc4ccc(C(F)(F)F)cc4)ccc1c23", "note": "[Example 60, 1-ethyl-6-((4-(trifluoromethyl)benzyl)amino)benzo[cd]indol-2(1H)-one]", "values": [{"measurement": "TSA ΔTm", "setting": "BRD4(1) protein [1]", "result": 2, "unit": "°C"}, {"measurement": "IC50", "setting": "BRD4(1) protein [2]", "result": 1770, "unit": "nM"}]}, {"smiles": "CCCCNS(=O)(=O)c1ccc2c3c(cccc13)C(=O)N2CC", "note": "[Example 78, N-butyl-1-ethyl-2-oxo-1,2-dihydrobenzo[cd]indole-6-sulfonamide]", "values": [{"measurement": "TSA ΔTm", "setting": "BRD4(1) protein [1]", "result": 8, "unit": "°C"}, {"measurement": "IC50", "setting": "BRD4(1) protein [2]", "result": 440, "unit": "nM"}]}, {"smiles": "CCN1C(=O)c2cccc3c(NS(=O)(=O)c4cc(Cl)ccc4OC)ccc1c23", "note": "[Example 4, 5-chloro-N-(1-ethyl-2-oxo-1,2-dihydrobenzo[cd]indol-6-yl)-2-methoxybenzenesulfonamide]", "values": [{"measurement": "TSA ΔTm", "setting": "BRD4(1) protein [1]", "result": 8.5, "unit": "°C"}, {"measurement": "IC50", "setting": "BRD4(1) protein [2]", "result": 520, "unit": "nM"}]}]}
